Patent US8993632B2, “Inhibitors of the 11-beta-hydroxysteroid dehydrogenase type 1 enzyme” (AbbVie Inc., priority 2005, dated 2015)

Assays:
human 11-β-HSD-2 = target: T1, human 11-β-HSD-2 (Homo sapiens, UniProt P80365); assay: 11β-HSD-2 Scintillation Proximity Assay (tritiated cortisol, NAD+); format: biochemical; settings: human enzyme, SPA
T1 sequence (P80365 1-405): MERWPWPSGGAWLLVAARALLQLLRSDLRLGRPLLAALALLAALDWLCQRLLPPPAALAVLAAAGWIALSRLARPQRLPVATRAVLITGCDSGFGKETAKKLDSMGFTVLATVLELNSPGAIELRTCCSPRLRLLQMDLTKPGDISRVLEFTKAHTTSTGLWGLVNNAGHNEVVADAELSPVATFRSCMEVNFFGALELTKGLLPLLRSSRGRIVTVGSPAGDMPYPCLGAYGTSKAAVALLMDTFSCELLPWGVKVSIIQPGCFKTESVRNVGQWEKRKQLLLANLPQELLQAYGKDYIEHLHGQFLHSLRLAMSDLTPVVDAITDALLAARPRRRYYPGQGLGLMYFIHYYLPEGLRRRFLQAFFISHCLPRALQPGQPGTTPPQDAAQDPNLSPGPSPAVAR
Experimental: (§1) The reaction was stopped by adding a non-specific 11β-HSD inhibitor, 18β-glycyrrhetinic acid. The tritiated cortisol was captured by a mixture of an anti-cortisol monoclonal antibody and SPA beads coated with anti-mouse antibodies. The reaction plate was shaken at room temperature and the radioactivity bound to SPA beads was then measured on a β-scintillation counter. The 11-βHSD-1 assay was carried out in 96-well microtiter plates in a total volume of 220 μl. […] In order to drive the reaction in the forward direction, 1 mM G-6-P was also added. Solid compound was dissolved in DMSO to make a 10 mM stock followed by a subsequent 10-fold dilution with 3% DMSO in Tris/EDTA buffer (pH 7.4). […] Reactions were initiated by the addition of 10 μl of 0.1 mg/ml E. coli lysates overexpressing 11β-HSD-1 enzyme. After shaking and incubating plates for 30 minutes at room temperature, reactions were stopped by adding 10 μl of 1 mM glycyrrhetinic acid. The product, tritiated cortisol, was captured by adding 10 μl of […] monoclonal anti-cortisol antibodies and 100 μl SPA beads coated with anti-mouse antibodies. After shaking for 30 minutes, plates were read on a liquid scintillation counter Topcount. Percent inhibition was calculated based on the background and the maximal signal. Wells that contained substrate without compound or enzyme were used as the background, while the wells that contained substrate and enzyme without any compound were considered as maximal signal. Percent of inhibition of each compound was calculated relative to the maximal signal and IC50 curves were generated. This assay was applied to 11β-HSD-2 as well, whereby tritiated cortisol and NAD^+ were used as substrate and cofactor, respectively.

[1] = target: T2, truncated human 11β-HSD-1 enzyme (24-287AA) (Homo sapiens, UniProt P28845); assay: 11β-HSD-1 enzymatic Scintillation Proximity Assay (SPA); format: biochemical
T2 construct: truncated human 11β-HSD-1 enzyme (24-287AA); made in house; host or cells: E. coli (crude lysate)
T2 sequence (P28845 24-287): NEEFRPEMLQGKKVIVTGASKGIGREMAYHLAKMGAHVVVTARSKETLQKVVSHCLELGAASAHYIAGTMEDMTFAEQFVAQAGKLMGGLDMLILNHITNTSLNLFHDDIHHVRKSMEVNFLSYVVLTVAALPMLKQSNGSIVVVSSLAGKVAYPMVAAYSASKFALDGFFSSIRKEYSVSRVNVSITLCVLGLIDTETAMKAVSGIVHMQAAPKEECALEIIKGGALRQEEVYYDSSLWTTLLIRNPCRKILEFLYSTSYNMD
Experimental: as §1

| Compound | IC50 (human 11-β-HSD-2) [nM] | IC50 [1] [nM] |
| --- | --- | --- |
| Cc1ccccc1CN1CCC(C)(C(=O)N[C@@H]2[C@@H]3C[C@@H]4C[C@H]2C[C@@](C(N)=O)(C4)C3)C1=O (stereo partly shown) [CC] | 12000 | 23 |
| NC(=O)[C@]12C[C@@H]3C[C@H](C1)[C@@H](NC(=O)C1(c4ccccc4)CCCC1)[C@@H](C3)C2 [Compound K, E-4-{[(1-phenylcyclopentyl)carbonyl]amino}adamantane-1-carboxamide] | 16000 | 43 |
| NC(=O)[C@]12C[C@@H]3C[C@H](C1)[C@@H](NC(=O)C1(c4cccc(F)c4)CCCC1)[C@@H](C3)C2 [Compound L, E-4-({[1-(3-fluorophenyl)cyclopentyl]carbonyl}amino)adamantane-1-carboxamide] | 16000 | 25 |
| NC(=O)[C@]12C[C@@H]3C[C@H](C1)[C@@H](NC(=O)C1(c4ccc(F)cc4Cl)CCCC1)[C@@H](C3)C2 [Compound M, E-4-({[1-(2-chloro-4-fluorophenyl)cyclopentyl]carbonyl}amino)adamantane-1-carboxamide] | > 30000 | 30 |
| CC(C)(C(=O)N[C@@H]1[C@@H]2C[C@@H]3C[C@H]1C[C@@](C(N)=O)(C3)C2)c1ccc(-c2ccncc2)cc1 [Compound T, E-4-{[2-methyl-2-(4-pyridin-4-ylphenyl)propanoyl]amino}adamantane-1-carboxamide] | > 30000 | 31 |
| CC1(C(=O)N[C@@H]2[C@@H]3C[C@@H]4C[C@H]2C[C@@](C(N)=O)(C4)C3)CCN(Cc2ccccc2Cl)C1=O (stereo partly shown) [DD] | 6300 | 23 |
| Cn1cc(-c2ccc(C(C)(C)C(=O)N[C@@H]3[C@@H]4C[C@@H]5C[C@H]3C[C@@](C(N)=O)(C5)C4)cc2)cn1 [FF, E-4-({2-methyl-2-[4-(1-methyl-1H-pyrazol-4-yl)phenyl]propanoyl}amino)adamantane-1-carboxamide] | > 100000 | 28 |
| NC(=O)[C@]12C[C@@H]3C[C@H](C1)[C@@H](NC(=O)C1(c4ccc(Cl)cc4)CCCCC1)[C@@H](C3)C2 [G, E-4-({[1-(4-chlorophenyl)cyclohexyl]carbonyl}amino)adamantane-1-carboxamide] | 7400 | 59 |
| CC(C)(C(=O)N[C@@H]1[C@@H]2C[C@@H]3C[C@H]1C[C@@](C(N)=O)(C3)C2)c1cccc(Br)c1 [GG, E-4-{[2-(3-bromophenyl)-2-methylpropanoyl]amino}adamantane-1-carboxamide] | 9300 | 17 |
| NC(=O)[C@]12C[C@@H]3C[C@H](C1)[C@@H](NC(=O)C1(c4ccc(Cl)cc4)CC1)[C@@H](C3)C2 [H, E-4-({[1-(4-chlorophenyl)cyclopropyl]carbonyl}amino)adamantane-1-carboxamide] | > 30000 | 33 |
| Cc1noc(C)c1-c1ccc(C(C)(C)C(=O)N[C@@H]2[C@@H]3C[C@@H]4C[C@H]2C[C@@](C(N)=O)(C4)C3)cc1 [HH, E-4-({2-[4-(3,5-dimethylisoxazol-4-yl)phenyl]-2-methylpropanoyl}amino)adamantane-1-carboxamide] | 40000 | 44 |
| NC(=O)[C@]12C[C@@H]3C[C@H](C1)[C@@H](NC(=O)C1(c4ccc(Cl)cc4)CCCC1)[C@@H](C3)C2 [I, E-4-({[1-(4-chlorophenyl)cyclopentyl]carbonyl}amino)adamantane-1-carboxamide] | 12000 | – |
| CC(C)(C(=O)N[C@@H]1[C@@H]2C[C@@H]3C[C@H]1C[C@@](C(N)=O)(C3)C2)c1ccc(-c2cccnc2)cc1 [II, E-4-{[2-methyl-2-(4-pyridin-3-ylphenyl)propanoyl]amino}adamantane-1-carboxamide] | 44000 | – |
| CC(C)(C(=O)N[C@@H]1[C@@H]2C[C@@H]3C[C@H]1C[C@@](C(N)=O)(C3)C2)c1ccc(Cl)cc1 [J, E-4-{[2-(4-chlorophenyl)-2-methylpropanoyl]amino}adamantane-1-carboxamide] | – | 33 |
